Reference: patent US20070048247A1, “Deodorizing tablets” (Kimberly-Clark Worldwide, Inc., priority 2005, published 2007)

What was measured:
[1] = Example 3 urine odor panel ranking; parameters: species or system Human; conditions: for Average Urine Odor Ranking (with statistical corrections), Avg. Score: ignoring statistical anomalies
Protocol: (§1) The effectiveness of various quinone compounds in reducing urine odor was compared. […] Human female urine was initially collected and pooled by a nurse on staff at Kimberly-Clark Corporation. The pooled urine was added to mason jars in 50-milliliter aliquots using an automated pipette aid. […] The mason jars were placed in an incubator overnight at 37° C.
(§2) In addition to ranking the jars from least to most malodorous (on a scale from 1 to 7, with 7 being the most malodors), panelists were also asked to judge whether there were secondary (non-urine) odors present and, if so, the extent that the secondary odors were unpleasant (on a scale from 1 to 5, with 5 being extremely unpleasant).
In this assessment, panelists were given instructions to rank the least malodorous jar as “1” and the most malodorous jar as “10,” remaining free to rank the other jars between 2-9.

[2] = Example 1 urine odor panel ranking; parameters: species or system Human; conditions: 8 millimolar in urine
Source text: Human female urine was initially collected and pooled by a nurse on staff at Kimberly-Clark Corporation. […] Powders of Acid Blue 129 and Acid Green 27 (commercially available from Sigma-Aldrich Chemical Co., Inc. of St. Louis, Mo.), as well as D&C Green No. 5 (commercially available from Noveon Hilton Davis, Inc. of Cincinnati, Ohio), were then weighed and placed into the mason jars containing 50 milliliters of urine so that the final concentration of the powder was 8 millimolar (equivalent to 0.5 wt. %). […] A score of “10” was assigned to the most malodorous jar and a score of “1” was assigned to the least malodorous jar.

[3] = Solubility of powder in urine
[4] = Example 7 urine odor panel ranking (16 millimolar); parameters: species or system Human; conditions: 16 millimolar in urine, 1 least, 10 most urine malodor
Protocol: The effectiveness of various quinone compounds in reducing urine odor was compared. […] Human female urine was initially collected and pooled at Kimberly-Clark Corporation. The pooled urine was added to mason jars in 50-milliliter aliquots using an automated pipette aid. Powders of the aforementioned quinone compounds (commercially available from Sigma-Aldrich Chemical Co., Inc. of St. Louis, Missouri and Noveon Hilton Davis, Inc. of Cincinnati, Ohio) were weighed and placed into the mason jars containing 50 milliliters of urine so that the final concentration of the powder was 16 millimolar (equivalent to 1 wt. %). The mason jars were placed in an incubator overnight at 37° C. The experimental setup is set forth in more detail below in Table 21.
Jars were wrapped in foil and placed in an incubator at 37° C. overnight. The jars were divided into four groups (C-F), each sharing the same control jar of urine alone (no powder). Assessments were conducted the following day by asking panelists to rate each jar from 1 (least urine malodor) to 10 (most urine malodor).

[5] = Example 5 urine odor panel ranking; parameters: species or system Human
Protocol: Assessments were conducted the following day by asking panelists to rate each jar from 1 (least urine malodor) to 8 (most urine malodor). The results are set forth below in Tables 15-18.

[6] = Example 6 urine odor panel ranking; parameters: species or system Human; conditions: as Example 5, 1 least, 8 most urine malodor
Source text: The quinone compounds chosen for this example were Alizarin Blue Black B, Remazol Brilliant Blue R and Acid Green 25. The results are set forth below in Tables 19 and 20.

[7] = Example 3 secondary (non-urine) odor ranking; parameters: species or system Human; conditions: Example 3 first grouping; for Secondary Odor Ranking: individual panelist scores, scale 1 to 5, 5 extremely unpleasant
Protocol: as §1, §2

[8] = Example 3 second grouping, 8 millimolar in urine, 1 least malodorous
[9] = Example 3 top performers of both groupings, after 24 hours, 1 least, 10 most malodorous
[10] = Example 3 top performers, after 24 hours
[11] = Example 3 top performers, after 24 hours, 1 least, 10 most malodorous
[12] = after 6 hours, 1 least, 10 most malodorous
[13] = after 24 hours, 1 least, 10 most malodorous
[14] = Example 5, 8 mM in 50 milliliters of urine
[15] = Example 7, 16 mM in 50 milliliters of urine
[16] = Example 5 Group B, 8 mM in urine, 1 least, 8 most urine malodor
[17] = Example 3 first grouping, 8 millimolar in urine, scale 1 to 7, 7 most malodorous
[18] = Example 5 Group A, 8 mM in urine, 1 least, 8 most urine malodor

## Cc1cc(C)c(Nc2cc(S(=O)(=O)[O-])c(N)c3c2C(=O)c2ccccc2C3=O)c(C)c1.[Na+] [Acid Blue 129]
[1]; [8]
  Average Urine Odor Ranking, Avg. Score: 1.8
  Urine Odor Ranking 1 (number of panelists): 3
  Urine Odor Ranking 3 (number of panelists): 2
[1]; [9]
  Urine Odor Ranking 1 (number of panelists): 1
  Urine Odor Ranking 3 (number of panelists): 1
  Urine Odor Ranking 4 (number of panelists): 1
  Urine Odor Ranking 5 (number of panelists): 1
  Urine Odor Ranking 6 (number of panelists): 1
[1]; [10]
  odor reduction (in words): achieved the best odor reduction
  Average Urine Odor Ranking (with statistical corrections), Avg. Score: 3.8
[1]; [11]
  Average Urine Odor Ranking, Avg. Score: 3.8
[2]
  reducing urine malodor (in words): functioned effectively in reducing urine malodor
[2]; [12]
  Avg. Ranking (odor): 1.6
  Ranking 1 (number of panelists): 4
  Ranking 4 (number of panelists): 1
[2]; [13]
  Avg. Ranking (odor): 1.3
  Ranking 1 (number of panelists): 5
  Ranking 3 (number of panelists): 1
[3]; [14]
  Soluble?: Mostly
[3]; [15]
  Soluble?: Somewhat
[4]; Example 7 Group E
  Average Rankings (Group E), Avg. Score: 6
  Urine Odor Ranking 1 (number of panelists): 1
  Urine Odor Ranking 4 (number of panelists): 1
  Urine Odor Ranking 7 (number of panelists): 1
  Urine Odor Ranking 9 (number of panelists): 2
[5]; Example 5 Group B
  odor reduction performance (in words): performed well
[5]; [16]
  Average Rankings (Group B), Avg. Score: 5
  Urine Odor Ranking 2 (number of panelists): 1
  Urine Odor Ranking 5 (number of panelists): 1
  Urine Odor Ranking 6 (number of panelists): 1
  Urine Odor Ranking 7 (number of panelists): 1

## Cc1ccc(Nc2ccc(Nc3ccc(C)cc3S(=O)(=O)[O-])c3c2C(=O)c2ccccc2C3=O)c(S(=O)(=O)[O-])c1.[Na+].[Na+] [Acid Green 25]
[1]; Example 3 first grouping
  urine odor reduction (in words): functioned effectively to reduce odor
[1]; [17]
  Average Urine Odor Ranking, Avg. Score: 2.2
  Urine Odor Ranking 1 (number of panelists): 3
  Urine Odor Ranking 2 (number of panelists): 1
  Urine Odor Ranking 6 (number of panelists): 1
[1]; [8]
  Average Urine Odor Ranking, Avg. Score: 4.4
[1]; [9]
  Urine Odor Ranking 1 (number of panelists): 3
  Urine Odor Ranking 2 (number of panelists): 1
  Urine Odor Ranking 10 (number of panelists): 1
[1]; [10]
  odor reduction (in words): achieved the best odor reduction
  Average Urine Odor Ranking (with statistical corrections), Avg. Score: 1.3
[1]; [11]
  Average Urine Odor Ranking, Avg. Score: 3.0
[6]
  Average Rankings, Avg. Score: 2.25
  Urine Odor Ranking 1 (number of panelists): 2
  Urine Odor Ranking 2 (number of panelists): 1
  Urine Odor Ranking 5 (number of panelists): 1
[3]; [14]
  Soluble?: Yes
[3]; [15]
  Soluble?: Mostly
[4]; Example 7 Group F
  Average Rankings (Group F), Avg. Score: 3.2
  Urine Odor Ranking 1 (number of panelists): 2
  Urine Odor Ranking 2 (number of panelists): 1
  Urine Odor Ranking 6 (number of panelists): 2
[5]; [18]
  Average Rankings (Group A), Avg. Score: 3
  Urine Odor Ranking 2 (number of panelists): 1
  Urine Odor Ranking 3 (number of panelists): 2
  Urine Odor Ranking 4 (number of panelists): 1
[7]
  secondary odor (in words): not found to be unpleasant by most panelists

## Cc1ccc(Nc2ccc(Nc3ccc(C)cc3S(=O)(=O)[O-])c3c2C(=O)c2c(O)ccc(O)c2C3=O)c(S(=O)(=O)[O-])c1.[Na+].[Na+] [Acid Green 41]
[1]; Example 3 first grouping
  urine odor reduction (in words): functioned effectively to reduce odor
[1]; [17]
  Average Urine Odor Ranking, Avg. Score: 2.4
  Urine Odor Ranking 1 (number of panelists): 1
  Urine Odor Ranking 2 (number of panelists): 2
  Urine Odor Ranking 3 (number of panelists): 1
  Urine Odor Ranking 4 (number of panelists): 1
[1]; [9]
  Urine Odor Ranking 1 (number of panelists): 1
  Urine Odor Ranking 2 (number of panelists): 2
  Urine Odor Ranking 3 (number of panelists): 1
  Urine Odor Ranking 7 (number of panelists): 1
[1]; [10]
  odor reduction (in words): achieved the best odor reduction
  Average Urine Odor Ranking (with statistical corrections), Avg. Score: 2.0
[1]; [11]
  Average Urine Odor Ranking, Avg. Score: 3.0
[6]
  Average Rankings, Avg. Score: 5.25
  Urine Odor Ranking 3 (number of panelists): 1
  Urine Odor Ranking 4 (number of panelists): 1
  Urine Odor Ranking 6 (number of panelists): 1
  Urine Odor Ranking 8 (number of panelists): 1
[3]; [14]
  Soluble?: Yes
[3]; [15]
  Soluble?: Yes
[4]; Example 7 Group D
  Average Rankings (Group D), Avg. Score: 1.4
  Urine Odor Ranking 1 (number of panelists): 4
  Urine Odor Ranking 3 (number of panelists): 1
[5]; [18]
  Average Rankings (Group A), Avg. Score: 4.25
  Urine Odor Ranking 2 (number of panelists): 1
  Urine Odor Ranking 3 (number of panelists): 1
  Urine Odor Ranking 5 (number of panelists): 1
  Urine Odor Ranking 7 (number of panelists): 1
[7]
  Secondary Odor Ranking: 1

## CCN(Cc1cccc(S(=O)(=O)[O-])c1)c1ccc(C(=C2C=CC(=[N+](CC)Cc3cccc(S(=O)(=O)[O-])c3)C=C2)c2ccccc2S(=O)(=O)[O-])cc1.[Na+].[Na+] [FD&C Blue No. 1, FD&C Blue No.1, reference compound]
[1]; [17]
  Average Urine Odor Ranking, Avg. Score: 4.8
  Urine Odor Ranking 4 (number of panelists): 1
  Urine Odor Ranking 5 (number of panelists): 4
[7]
  Secondary Odor Ranking: 3
